Measurements taken from patent US7781591B2, “Substituted 3-cyanopyridines as protein kinase inhibitors” (Wyeth LLC, priority 2006, dated 2010).

Target: T1, human PKCθ full length enzyme (Homo sapiens, UniProt Q04759)
T1 construct: human PKCθ full length enzyme (Panvera Cat# P2996); purchased Panvera P2996
Assay: PKCθ IMAP assay (fluorescence polarization)
Assay type: biochemical
Details: human PKCθ full length enzyme, IMAP; average value; read-out: IC50 PKCθ IMAP
Experimental: The reaction buffer was prepared by diluting the 5× stock reaction buffer and adding DTT to obtain a concentration of 3.0 mM. […] The final concentration of compound was 2× and 10% DMSO. DMSO was added to the rest of the master mix to increase the concentration to 10%. 10 μl of the master mix containing 10% DMSO was added to the rest of the wells on the plate except the 2nd column. 20 μl was transferred from the first column to the 2nd column. The compounds were serially diluted in 2:1 ratio starting from the 2nd column. A 2× ([…]) PKCθ solution was made in the reaction buffer. 10 μl of the PKCθ solution was added to every well to achieve these final concentrations: PKCθ—1 nM; ATP—6 μM; peptide—100 nM; DMSO—5%. Samples were incubated for 25 minutes at room temperature. The binding reagent was prepared by diluting the beads in 1× binding buffer to 800:1. 50 μl of the binding reagent was added to every well and incubated for 20 minutes. FP was measured using Envision2100 (PerkinElmer Life Sciences). Wells with no ATPs and wells with no enzymes were used as controls.

T1 sequence (Q04759 whole entry): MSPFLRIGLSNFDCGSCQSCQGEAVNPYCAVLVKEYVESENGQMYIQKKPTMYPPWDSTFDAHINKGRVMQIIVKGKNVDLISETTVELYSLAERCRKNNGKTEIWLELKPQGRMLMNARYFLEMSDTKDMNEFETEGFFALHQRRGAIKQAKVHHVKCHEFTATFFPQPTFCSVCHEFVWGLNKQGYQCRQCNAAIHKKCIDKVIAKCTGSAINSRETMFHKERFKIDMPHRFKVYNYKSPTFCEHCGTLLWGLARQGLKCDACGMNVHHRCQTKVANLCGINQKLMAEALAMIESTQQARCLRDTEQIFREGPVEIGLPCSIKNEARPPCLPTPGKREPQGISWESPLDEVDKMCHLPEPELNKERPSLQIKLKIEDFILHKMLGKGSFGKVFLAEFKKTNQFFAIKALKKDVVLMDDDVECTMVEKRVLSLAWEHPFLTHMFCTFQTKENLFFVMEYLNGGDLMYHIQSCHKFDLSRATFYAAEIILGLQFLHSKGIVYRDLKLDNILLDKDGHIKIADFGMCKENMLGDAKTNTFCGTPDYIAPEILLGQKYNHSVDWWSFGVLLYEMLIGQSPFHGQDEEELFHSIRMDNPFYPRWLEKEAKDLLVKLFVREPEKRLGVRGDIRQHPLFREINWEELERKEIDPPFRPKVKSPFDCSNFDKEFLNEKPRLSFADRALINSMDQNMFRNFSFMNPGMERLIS

SMILES	IC50
Cc1c(Nc2c(C#N)cncc2-c2ccc(O)cc2)ccc2[nH]ccc12 [Compound 374, 5-(4-hydroxyphenyl)-4-[(4-methyl-1H-indol-5-yl)amino]nicotinonitrile]	20 nM
N#Cc1cccc(-c2cncc(C#N)c2Nc2cccc3[nH]ccc23)c1 [Compound 311, 5-(3-cyanophenyl)-4-(1H-indol-4-ylamino)nicotinonitrile]	20 nM
Cc1c(Nc2c(C#N)cncc2-c2ccc(OCCCN3CCOCC3)cc2)ccc2[nH]ccc12 [Compound 473, 4-[(4-methyl-1H-indol-5-yl)amino]-5-[4-(3-morpholin-4-ylpropoxy)phenyl]nicotinonitrile]	24 nM
COc1ccc(-c2cncc(C#N)c2Nc2cccc3cc[nH]c23)cc1OC [Compound 544, 5-(3,4-dimethoxyphenyl)-4-(1H-indol-7-ylamino)nicotinonitrile]	737 nM
Cc1cc2[nH]ccc2cc1Nc1c(C#N)cncc1-c1ccc(OCCN2CCC(N3CCCC3)CC2)cc1 [Compound 506, 4-[(6-methyl-1H-indol-5-yl)amino]-5-{4-[2-(4-pyrrolidin-1-ylpiperidin-1-yl)ethoxy]phenyl}nicotinonitrile]	83 nM
COc1ccc(-c2cncc(C#N)c2Nc2cccc3[nH]ccc23)cc1OCCN1CCOCC1 [Compound 299, 4-(1H-indol-4-ylamino)-5-[4-methoxy-3-(2-morpholin-4-ylethoxy)phenyl]nicotinonitrile]	30 nM
Cc1c(Nc2c(C#N)cncc2-c2ccccc2)ccc2[nH]ccc12 [Compound 560, 4-[(4-methyl-1H-indol-5-yl)amino]-5-phenylnicotinonitrile]	27 nM
CS(=O)(=O)Nc1cccc(-c2cncc(C#N)c2Nc2cccc3[nH]ccc23)c1 [Compound 256, N-{3-[5-cyano-4-(1H-indol-4-ylamino)pyridin-3-yl]phenyl}methanesulfonamide]	20 nM
Cc1c(Nc2c(C#N)cncc2-c2ccc(CNCc3ccccc3)o2)ccc2[nH]ccc12 [Compound 408, 5-{5-[(benzylamino)methyl]-2-furyl}-4-[(4-methyl-1H-indol-5-yl)amino]nicotinonitrile]	11 nM
N#Cc1cncc(-c2cccc(-c3ccc(C(=O)NC4CC4)cc3)c2)c1Nc1ccc2[nH]ccc2c1 [Compound 201, 3′-[5-cyano-4-(1H-indol-5-ylamino)pyridin-3-yl]-N-cyclopropylbiphenyl-4-carboxamide]	300 nM
N#Cc1cncc(-c2cccc(OCCN3CCCCC3)c2)c1Nc1cccc2[nH]ccc12 [Compound 171, 4-(1H-indol-4-ylamino)-5-[3-(2-piperidin-1-ylethoxy)phenyl]nicotinonitrile]	50 nM
N#Cc1cncc(-c2cccc(-c3cc[nH]c3)c2)c1Nc1ccc2[nH]ccc2c1 [Compound 124, 4-(1H-indol-5-ylamino)-5-[3-(1H-pyrrol-3-yl)phenyl]nicotinonitrile]	1100 nM
Cc1cc2[nH]ccc2cc1Nc1c(C#N)cncc1-c1ccc(OCCN2CCCCC2)cc1 [Compound 504, 4-[(6-methyl-1H-indol-5-yl)amino]-5-[4-(2-piperidin-1-ylethoxy)phenyl]nicotinonitrile]	84 nM
Cc1c(Nc2c(C#N)cncc2-c2cc3cc(CNCCO)ccc3o2)ccc2[nH]ccc12 [Compound 383, 5-(5-{[(2-hydroxyethyl)amino]methyl}-1-benzofuran-2-yl)-4-[(4-methyl-1H-indol-5-yl)amino]nicotinonitrile]	2 nM
Cc1c(Nc2c(C#N)cncc2-c2ccoc2)ccc2[nH]ccc12 [Compound 563, 5-(3-furyl)-4-[(4-methyl-1H-indol-5-yl)amino]nicotinonitrile]	22 nM
Cc1c(Nc2c(C#N)cncc2-c2ccc(OCCNCc3cccnc3)cc2)ccc2[nH]ccc12 [Compound 433, 4-[(4-methyl-1H-indol-5-yl)amino]-5-(4-{2-[(pyridin-3-ylmethyl)amino]ethoxy}phenyl)nicotinonitrile]	10 nM
COc1ccc(-c2cncc(C#N)c2Nc2cccc3[nH]c(C)cc23)cc1OC [Compound 349, 5-(3,4-dimethoxyphenyl)-4-[(2-methyl-1H-indol-4-yl)amino]nicotinonitrile]	130 nM
COCCOc1ccc(-c2cncc(C#N)c2Nc2ccc3[nH]ccc3c2C)cc1OCCOC [Compound 477, 5-[3,4-bis(2-methoxyethoxy)phenyl]-4-[(4-methyl-1H-indol-5-yl)amino]nicotinonitrile]	72 nM
COc1ccc(-c2cncc(C#N)c2Nc2ccc3[nH]ccc3c2C)cc1OC [Compound 218, 5-(3,4-dimethoxyphenyl)-4-[(4-methyl-1H-indol-5-yl)amino]nicotinonitrile]	6 nM

SMILES	IC50
Cc1c(Nc2c(C#N)cncc2-c2ccc(OCCCCCl)cc2)ccc2[nH]ccc12 [Compound 490, 5-[4-(4-chlorobutoxy)phenyl]-4-[(4-methyl-1H-indol-5-yl)amino]nicotinonitrile]	51 nM
Cc1c(Nc2c(C#N)cncc2-c2ccc(OCCN3CCCC3)cc2)ccc2[nH]ccc12 [Compound 418, 4-[(4-methyl-1H-indol-5-yl)amino]-5-[4-(2-pyrrolidin-1-ylethoxy)phenyl]nicotinonitrile]	4 nM
Cc1c(Nc2c(C#N)cncc2-c2ccc3ccccc3c2)ccc2[nH]ccc12 [Compound 582, 4-[(4-methyl-1H-indol-5-yl)amino]-5-(2-naphthyl)nicotinonitrile]	92 nM
COc1cccc(Cl)c1-c1cncc(C#N)c1Nc1ccc2[nH]ccc2c1C [Compound 375, 5-(2-chloro-6-methoxyphenyl)-4-[(4-methyl-1H-indol-5-yl)amino]nicotinonitrile]	150 nM
Cc1c(Nc2c(C#N)cncc2-c2ccnc(CN3CCOCC3)c2)ccc2[nH]ccc12 [Compound 453, 4-[(4-methyl-1H-indol-5-yl)amino]-2′-(morpholin-4-ylmethyl)-3,4′-bipyridine-5-carbonitrile]	60 nM
Cc1c(Nc2c(C#N)cncc2-c2cc3cc(CNCC(O)CO)ccc3o2)ccc2[nH]ccc12 (centres unmarked) [Compound 385, 5-(5-{[(2,3-dihydroxypropyl)amino]methyl}-1-benzofuran-2-yl)-4-[(4-methyl-1H-indol-5-yl)amino]nicotinonitrile]	2 nM
N#Cc1cncc(-c2cc3cc(CNCCO)ccc3s2)c1Nc1cccc2[nH]ccc12 [Compound 274, 5-(5-{[(2-hydroxyethyl)amino]methyl}-1-benzothien-2-yl)-4-(1H-indol-4-ylamino)nicotinonitrile]	2 nM
Cc1c(Nc2c(C#N)cncc2-c2cccc(-c3ccc(C=O)s3)c2)ccc2[nH]ccc12 [Compound 306, 5-[3-(5-formyl-2-thienyl)phenyl]-4-[(4-methyl-1H-indol-5-yl)amino]nicotinonitrile]	60 nM
Cc1c(Nc2c(C#N)cncc2-c2ccc(OCCCl)cc2)ccc2[nH]ccc12 [Compound 348, 5-[4-(2-chloroethoxy)phenyl]-4-[(4-methyl-1H-indol-5-yl)amino]nicotinonitrile]	4 nM
Cc1c(Nc2c(C#N)cncc2-c2nccs2)ccc2[nH]ccc12 [Compound 541, 4-[(4-methyl-1H-indol-5-yl)amino]-5-(1,3-thiazol-2-yl)nicotinonitrile]	7 nM
N#Cc1cncc(-c2ccc(OCc3ccccc3)cc2)c1Nc1ccc2[nH]ccc2c1 [Compound 195, 5-[4-(benzyloxy)phenyl]-4-(1H-indol-5-ylamino)nicotinonitrile]	250 nM
Cc1c(Nc2c(C#N)cncc2-c2ccc(OCCN3CCC(c4ccccc4)CC3)cc2)ccc2[nH]ccc12 [Compound 435, 4-[(4-methyl-1H-indol-5-yl)amino]-5-{4-[2-(4-phenylpiperidin-1-yl)ethoxy]phenyl}nicotinonitrile]	49 nM
Cc1c(Nc2c(C#N)cncc2-c2cccc(C(=O)O)c2)ccc2[nH]ccc12 [Compound 556, 3-{5-cyano-4-[(4-methyl-1H-indol-5-yl)amino]pyridin-3-yl}benzoic acid]	110 nM
Cc1c(Nc2c(C#N)cncc2-c2ccc(OCCNCCCO)cc2)ccc2[nH]ccc12 [Compound 415, 5-(4-{2-[(3-hydroxypropyl)amino]ethoxy}phenyl)-4-[(4-methyl-1H-indol-5-yl)amino]nicotinonitrile]	5 nM
Cc1cc2[nH]ccc2cc1Nc1c(C#N)cncc1-c1ccc(OCCN2CCN(C)CC2)cc1 [Compound 496, 4-[(6-methyl-1H-indol-5-yl)amino]-5-{4-[2-(4-methylpiperazin-1-yl)ethoxy]phenyl}nicotinonitrile]	33 nM
Cc1c(Nc2c(C#N)cncc2-c2ccccc2CN(C)C)ccc2[nH]ccc12 [Compound 550, 5-{2-[(dimethylamino)methyl]phenyl}-4-[(4-methyl-1H-indol-5-yl)amino]nicotinonitrile]	205 nM
COc1ccc(-c2cncc(C#N)c2Nc2cccc3[nH]ccc23)cc1OCCNCCCn1ccnc1 [Compound 365, 5-[3-(2-{[3-(1H-imidazol-1-yl)propyl]amino}ethoxy)-4-methoxyphenyl]-4-(1H-indol-4-ylamino)nicotinonitrile]	4 nM
N#Cc1cncc(-c2ccccc2Br)c1Nc1ccc2[nH]ccc2c1 [Compound 115, 5-(2-bromophenyl)-4-(1H-indol-5-ylamino)nicotinonitrile]	310 nM
N#Cc1cncc(-c2ccc(OC[C@@H](N)Cc3ccccc3)cc2)c1Nc1cccc2[nH]ccc12 [Compound 226, 5-(4-{[(2S)-2-amino-3-phenylpropyl]oxy}phenyl)-4-(1H-indol-4-ylamino)nicotinonitrile]	3 nM
